These are literature values, as cited in patent publication US20060019940A1, “Novel benzoxazocines and their therapeutic use” (priority 2002, published 2006).

The structures appear in SMILES notation.

For data set [1], the system named is synaptosomal uptake of dopamine, norepinephrine and serotonin. The conditions noted are these: order of potency (+)-nefopam>(±)-nefopam>(−)-nefopam.
For data set [2] the following is noted: order of potency (+)-nefopam>(±)-nefopam>(−)-nefopam.

Turning to `CN1CCO[C@@H](c2ccccc2)c2ccccc2C1` [(+)-nefopam], the “dopamine, norepinephrine and serotonin uptake inhibitory properties compared with (−)-nefopam” value in data set [1] is recorded as “more potent”. Moreover, the “analgesic properties compared with (−)-nefopam” value in data set [2] is “more potent”.
